# Tests used:
# [1] = system: Caco2 and HepG2 cells; type: cell-based; conditions: at the determined MIC concentrations; range over compounds and cell lines
# Protocol: (§1) Cytotoxicity of the fungal extract and the identified compounds was determined measuring lactate dehydrogenase release using human intestinal epithelial (Caco2) and human hepatocytic (HepG2) cells. […] Cells were seeded into 96-well plates (5 × 10^4 cells per well) and incubated until a confluent cell layer had developed. After discarding of the media cells were incubated with 50 μl of media and 50 μl of fungal extract or compound (final concentration: PAA 2 × 10^6 μg/l, 4FP 2 × 10^6 μg/l, ICA 2 × 10^6 μg/l, IAA 2 × 10^5 μg/l, PLA 2 × 10^6 μg/l, cPM 2 × 10^6μg/l and cFP 2 × 10^6 μg/l) for 24 h at 37°C. […] LDH release was measured according to the manufacturer’s protocol (Sigma–Aldrich, USA).
# [2] = system: K. pneumoniae; experiment: Determination of MIC; type: cell-based, Klebsiella pneumoniae; conditions: K. pneumoniae; for MIC: Klebsiella pneumoniae, read-out: MIC
# Protocol: (§2) Minimal inhibitory concentrations (MICs) of purified compounds and commercially available standards were assessed against S. aureus, C. albicans, P. aeruginosa, K. pneumoniae, E. coli, ESBL K. pneumoniae, ESBL E. coli and the two MRSA strains (B337919 and B335466). Stock solutions of 5 × 10^6 μg/l of p-hydroxybenzaldehyde, and phenyllactic acid were prepared using water. Stock solutions of 1 × 10^8 μg/l indole-3-carboxylic acid, PAA and indole-3-acetic acid were prepared using methanol and diluted with water (working solution of 5 × 10^6 μg/l). Stocks of 1 × 10^6 μg/l of cFP and cPM were dissolved in water. […] Methanol and water were used as control.
# [3] = system: ESBL K. pneumoniae; experiment: Determination of MIC; type: cell-based, Klebsiella pneumoniae; conditions: ESBL K. pneumoniae; for MIC: Klebsiella pneumoniae, read-out: MIC
# Protocol: as §2
# [4] = system: MRSA Staphylococcus (S.) aureus B335466; experiment: Determination of MIC; type: cell-based; conditions: MRSA 335; for MIC: read-out: MIC
# Protocol: as §2
# [5] = system: MRSA Staphylococcus (S.) aureus B337919; experiment: Determination of MIC; type: cell-based; conditions: MRSA 337; for MIC: read-out: MIC
# Protocol: as §2
# [6] = system: human hepatocytic (HepG2) cells; experiment: Cytotoxicity assay, lactate dehydrogenase release; type: cell-based; conditions: for % of living HepG2 cells: compound 2mg/ml, 24 h, LDH
# Protocol: as §1
# [7] = system: human intestinal epithelial (Caco2) cells; experiment: Cytotoxicity assay, lactate dehydrogenase release; type: cell-based; conditions: for % of living Caco2 cells: compound 2mg/ml, 24 h, LDH
# Protocol: as §1
# [8] = system: higher fungi; parameters: method as in Strom et al., 2002; conditions: ref Strom et al., 2002; cited from earlier work
# [9] = system: C. albicans; experiment: Determination of MIC; type: cell-based, Candida albicans; conditions: lowest concentration at which the inhibitory effect was detectable; C. albicans
# Protocol: as §2
# [10] = system: E. coli; experiment: Determination of MIC; type: cell-based, Escherichia coli; conditions: E. coli; for MIC: Escherichia coli, read-out: MIC
# Protocol: as §2
# [11] = system: ESBL E. coli; experiment: Determination of MIC; type: cell-based, Escherichia coli; conditions: ESBL E. coli; for MIC: Escherichia coli, read-out: MIC
# Protocol: as §2
# [12] = system: Bacillus subtilis, S. aureus and Micrococcus luteus; parameters: method as in Jayatilake et al., 1996; Thomas et al., 2010; conditions: ref Jayatilake et al., 1996; Thomas et al., 2010; cited from earlier work
# [13] = system: HepG2 cells; experiment: XTT assay, metabolic active cells; type: cell-based, human; conditions: compound 2mg/ml
# Protocol: (§3) In parallel the % of metabolic cells was measured using the XTT [2,3-Bis-(2-methoxy-4-nitro-5-sulfophenyl)-2H-tetra zolium-5-carboxanilide] assay (Thermo Scientific). Briefly, after treatment with the fungal extract or the different compounds cells were incubated with XTT and phenanzine methosulfate (Thermo Scientific) for 2 h. Absorbance was measured at 450 nm and % of metabolic active cells was calculated versus the control sample (media). As controls we incubated the cells without fungal cultures or compound, and with VPA alone.
# [14] = system: Caco2 cells; experiment: XTT assay, metabolic active cells; type: cell-based, human; conditions: compound 2mg/ml, XTT
# Protocol: as §3
# [15] = system: S. aureus; experiment: Determination of MIC; type: cell-based, Staphylococcus aureus; conditions: S. aureus; for MIC: Staphylococcus aureus, read-out: MIC
# Protocol: as §2
# [16] = system: P. aeruginosa; experiment: Determination of MIC; type: cell-based, Pseudomonas aeruginosa; conditions: for MIC: Pseudomonas aeruginosa
# Protocol: as §2
# [17] = parameters: method as in Rodloff et al., 2008; conditions: ref Rodloff et al., 2008; cited from earlier work
# [18] = system: acetylation of histone H3 K9 and K14; experiment: Histone posttranslational modifications by Western blot; type: cell-based, Doratomyces microsporus; conditions: VPA-treated D. microsporus cultures, 24, 48, 72 h
# Protocol: Mycelia from the D. microsporus cultures were harvested after 24, 48, and 72 h by filtration and frozen in liquid nitrogen. Histones were extracted under acidic conditions as described by [Honda and Selker (2008)]. Samples were suspended in Laemmli’s SDS sample buffer and quantified with Pierce BCA Protein Assay (Thermo Scientific). Fifteen microgram of purified histones were separated on 15% SDS-PAGE gel and subsequently transferred to nitrocellulose membrane (GE Healthcare) by electroblotting. Histone H3 acetylation (H3Ac) was detected with primary antibody specific to H3Ac (Millipore, 06-599). As a loading control histone H3 C-terminus was detected with anti H3 C-terminus antibody (Abcam, 1791). The primary antibodies were identified with anti- rabbit (Sigma–Aldrich, A0545) horseradish peroxidase (HRP) conjugated secondary antibody. Chemiluminescence was detected with Clarity^TM ECL Western Substrate and ChemiDoc^TM XRS (Bio- Rad).
# [19] = system: MRSA strain B335466; experiment: Ampicillin MIC alone and in combination; type: cell-based; conditions: Staphylococcus aureus
# Protocol: (§4) Furthermore we studied the ability of PAA, cPM and cFP to increase antimicrobial activity of ampicillin against both ESBL and MRSA strains. The combination of cPM (100 mg/l) with ampicillin decreased the MIC value from 100 to 10 mg/l against the MRSA strain B335466 (Figure 5C).
# [20] = system: MRSA strain B337919; experiment: Ampicillin MIC alone and in combination; type: cell-based; conditions: Staphylococcus aureus
# Protocol: as §4
# [21] = system: ESBL K. pneumoniae strain; experiment: Ampicillin in combination; type: cell-based, Klebsiella pneumoniae; conditions: ampicillin combined with PAA, cPM or cFP
# Protocol: as §4
# [22] = system: ESBL E. coli strain; experiment: Ampicillin in combination; type: cell-based, Escherichia coli; conditions: ampicillin combined with PAA, cPM or cFP
# Protocol: as §4
# [23] = lowest concentration at which the inhibitory effect was detectable
Molecule,dead cells [1],% of living HepG2 cells [6],% of living Caco2 cells [7],% of metabolic active HepG2 cells [13],% of metabolic active Caco2 cells [14],MIC [2],MIC [3],MIC [4],MIC [5],MIC [10],MIC [11],MIC [15],MIC [16],also measured
"O=C1NC(Cc2ccccc2)C(=O)N2CCCC12 [cFP, cyclo-(L-phenylalanine-L-proline)]",3.99–8.61%,5.11%,4.28%,116.63%,106.66%,,,,,,,,,"Inhibitory concentration [2, 23]: 3 g/L; Inhibitory concentration [3, 23]: 3 g/L; Inhibitory concentration [4, 23]: 2 g/L; Inhibitory concentration [5, 23]: 2 g/L; MIC [8]: 20000 µg/mL; Inhibitory concentration [9]: 2.5 g/L; Inhibitory concentration [10, 23]: 5 g/L; Inhibitory concentration [11, 23]: 5 g/L; antimicrobial activity [12]: no antimicrobial activity; Inhibitory concentration [15, 23]: 2 g/L; Inhibitory concentration [16, 23]: 5 g/L"
"O=C(O)c1c[nH]c2ccccc12 [ICA, indole-3-carboxylic acid]",3.99–8.61%,4.86%,8.36%,122.3%,97.59%,2000 µg/mL,2000 µg/mL,2000 µg/mL,2000 µg/mL,1000 µg/mL,1000 µg/mL,2000 µg/mL,2000 µg/mL,
co-trimoxazole,,,,,,,,,,,,,,accepted MIC values for antibiotics in clinical use [17]: 100 µg/mL
"CCCC(CCC)C(=O)O [VPA, valproic acid]",,,,,,,,,,,,,,acetylation of the N-terminal lysines of histone 3 compared to the untreated control culture [18]: could not detect any significant increase in acetylation
CC1(C)S[C@@H]2[C@H](NC(=O)[C@H](N)c3ccccc3)C(=O)N2[C@H]1C(=O)O [ampicillin],,,,,,,,,,,,,,MIC ([19]; ampicillin alone): 100 µg/mL; MIC ([19]; combined with PAA (1 g/l)): 50 µg/mL; MIC ([19]; combined with cPM (100 mg/l)): 10 µg/mL; MIC ([20]; ampicillin alone): 100 µg/mL; MIC ([20]; combined with cPM (2 g/l)): 50 µg/mL; synergistic or additive effect [21]: No synergistic or additive effect; synergistic or additive effect [22]: No synergistic or additive effect
"O=C(O)C(O)Cc1ccccc1 (stereo not shown) [PLA, phenyllactic acid]",,54.63%,19.65%,66.01%,41.48%,2500 µg/mL,5000 µg/mL,2000 µg/mL,2000 µg/mL,2500 µg/mL,5000 µg/mL,2000 µg/mL,5000 µg/mL,"dead cells ([6]; at the determined MIC concentrations, HepG2): 54.63%; dead cells ([7]; at the determined MIC concentrations, Caco2): 19.7%"

# Reference: paper PMC4829596 (Frontiers in Microbiology, 2016)
